# According to the supplement of paper PMC10307832:
# What was measured:
# Experiment in all cases: relative viability (nuclei count vs DMSO), 5 days (fraction); higher = more cells survive
# [1] = compound: COc1cccc2c1C(=O)c1c(O)c3c(c(O)c1C2=O)C[C@@](O)(C(=O)CO)C[C@@H]3O[C@H]1C[C@H](N)[C@H](O)[C@H](C)O1 [Doxorubicin] + C[C@]1(O)C[C@@H](c2nc(-c3ccc4ccc(-c5ccccc5)nc4c3)c3c(N)nccn32)C1 [Linsitinib] (partner 1 µM)
# Outline: (§1)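 Dosing by pin tool came one day after lung cancer cell lines were seeded in 1536-well plates, using either one drug or a fixed anchor-drug dose plus five library-drug doses (not always all listed) in √10 steps. After 5 days, nuclei were counted on 4× images. Relative viability is treated-well nuclei count divided by vehicle-well nuclei count, and values are medians of duplicate plates.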
# [2] = compound: COC1=C(C=C(C=C1)C2=CC3=NC=CN3C(=N2)NC4=C(C=CC=N4)C(=O)N)OC [BAY61-3606] + Nc1ncn([C@H]2C[C@H](O)[C@@H](CO)O2)c(=O)n1 [Decitabine] (partner 2 µM)
# Outline: as §1
# [3] = compound: COC1=C(C=C(C=C1)C2=CC3=NC=CN3C(=N2)NC4=C(C=CC=N4)C(=O)N)OC [BAY61-3606] + N=C(N)NC(=N)NCCc1ccccc1 [Phenformin] (partner 250 µM)
# Outline: as §1
# [4] = compound: COC1=C(C=C(C=C1)C2=CC3=NC=CN3C(=N2)NC4=C(C=CC=N4)C(=O)N)OC [BAY61-3606] + CCNC(=O)c1noc(-c2cc(C(C)C)c(O)cc2O)c1-c1ccc(CN2CCOCC2)cc1 [Luminespib] (partner 0.01 µM)
# Outline: as §1
Cell Line,relative viability ([1]; first compound 0.001 µM),relative viability ([1]; first compound 0.003162 µM),relative viability ([1]; first compound 0.01 µM),relative viability ([1]; first compound 0.03162 µM),relative viability ([1]; first compound 0.1 µM),relative viability ([2]; first compound 0.02 µM),relative viability ([2]; first compound 0.06325 µM),relative viability ([2]; first compound 0.2 µM),relative viability ([2]; first compound 0.6325 µM),relative viability ([2]; first compound 2 µM),relative viability ([3]; first compound 0.02 µM),relative viability ([3]; first compound 0.06325 µM),relative viability ([3]; first compound 0.2 µM),relative viability ([3]; first compound 0.6325 µM),relative viability ([3]; first compound 2 µM),relative viability ([4]; first compound 0.02 µM),relative viability ([4]; first compound 0.06325 µM),relative viability ([4]; first compound 0.2 µM),relative viability ([4]; first compound 0.6325 µM),relative viability ([4]; first compound 2 µM)
NCI-H3122,1.05,0.995,1.06,1.06,1,0.463,0.559,0.494,0.347,0.511,0.418,0.308,0.386,0.42,0.384,0.121,0.0764,0.0868,0.099,0.0933
NCI-H2023,0.642,0.62,0.549,0.279,0.102,0.221,0.297,0.237,0.266,0.19,0.491,0.369,0.386,0.438,0.322,0.885,0.614,0.669,0.778,0.535
HCC-15,0.878,0.842,0.927,0.795,0.725,0.575,0.569,0.583,0.65,0.6,0.474,0.457,0.458,0.474,0.454,0.412,0.302,0.303,0.263,0.377
COR-L23,0.881,1.08,0.908,0.331,0.18,0.398,0.441,0.455,0.485,0.363,0.474,0.438,0.495,0.466,0.352,0.672,0.728,0.674,0.806,0.372
HCC-827,0.922,0.965,0.969,0.921,0.921,0.327,0.321,0.352,0.317,0.308,0.392,0.435,0.389,0.358,0.347,0.492,0.587,0.572,0.743,0.31
NCI-H1355,0.793,0.862,0.81,0.872,0.785,0.391,0.377,0.389,0.359,0.361,0.484,0.368,0.406,0.448,0.41,0.736,0.657,0.694,0.727,0.413
RERF-LC-KJ,0.816,0.858,0.873,0.943,0.887,0.766,0.717,0.654,0.659,0.556,0.417,0.404,0.424,0.467,0.343,1.22,1.45,1.2,1.3,0.849
NCI-H2126,0.704,0.748,0.739,0.712,0.718,0.631,0.606,0.583,0.623,0.555,0.547,0.496,0.524,0.491,0.47,0.964,0.916,0.869,1.07,0.731
BEN,0.984,0.863,0.983,0.621,0.79,0.798,0.688,0.77,0.769,0.755,0.272,0.257,0.294,0.284,0.255,0.464,0.349,0.253,0.321,0.407
LCLC-97TM1,0.205,0.185,0.177,0.151,0.159,0.223,0.222,0.247,0.223,0.228,0.419,0.441,0.455,0.415,0.451,0.793,0.875,0.879,0.794,0.765
EKVX,0.996,0.922,0.957,1.11,0.879,0.362,0.344,0.318,0.349,0.328,0.239,0.228,0.221,0.222,0.234,0.999,0.927,0.844,0.897,0.843
ABC-1,0.787,0.727,0.805,0.435,0.337,1.04,1.08,0.957,1.22,0.97,0.254,0.269,0.219,0.227,0.284,0.985,0.549,0.529,0.81,0.338
PC-14,0.924,0.982,0.959,0.922,0.948,,0.244,0.246,0.203,0.226,0.752,0.357,0.579,0.532,0.536,0.191,,0.171,0.173,0.129
NCI-H1651,0.838,0.944,0.831,0.401,0.292,0.621,0.539,0.555,0.568,0.481,0.332,0.311,0.325,0.279,0.302,1.03,0.869,0.664,1.13,0.603
NCI-H2087,0.789,0.912,1.14,0.892,0.98,0.352,0.291,0.295,0.269,0.229,0.432,0.463,0.44,0.411,0.384,0.188,0.132,0.181,0.196,0.139
NCI-H1944,1.17,1.23,1.34,1.16,1.3,0.408,0.466,0.424,0.434,0.327,0.211,0.196,0.193,0.201,0.182,0.802,0.674,0.734,0.688,0.282
